Laboratory results published in patent US20250186408A1, “TREATMENT OF PHARMACORESISTANT EPILEPSY” (Katholieke Universiteit Leuven, priority 2021, published 2025).
pEC50, pIC50: −log10 of the molar value. Read-outs that look alike come from different tables or passages of the source.

Key:
AVPR1A = AVPR1A (Homo sapiens, UniProt P37288); test: Calcium Flux AVPR1A Antagonist; format: cell-based; conditions: for Emax: read-out: Max response; for pIC50: read-out: RC50, result type IC50
Experimental: (§1) (≤0.2% DMSO concentration). Assays were performed in 1× dye loading buffer consisting of 1× Dye (DiscoverX, Calcium No Wash^PLUS kit, Catalog No. 90-0091), 1× Additive A and 2.5 mM Probenecid in HBSS/20 mM HEPES. Probenecid was prepared fresh. Prior to testing, media was aspirated from cells and replaced with 25 μL dye loading buffer. Cells were incubated for 45 min at 37° C. and then 20 min at RT. For agonist determination, 25 μL of 2× compound in HBSS/20 mM HEPES was added using a FLIPR Tetra (MDS). […] 25 μL of 2× sample was added and cells were incubated for 30 min at RT in the dark to equilibrate plate temperature. After incubation, antagonist determination was initiated by addition of 25 μL of 1× compound with 3×EC80 agonist using FLIPR. For both agonist and antagonist formats, activity was measure on a FLIPR Tetra (MDS). Calcium mobilization was monitored for 2 min with a 5 sec baseline read.
(§2) FLIPR read—Area under the curve, was calculated for the entire 2 min read.

CCKAR = target: T1, CCKAR (Homo sapiens, UniProt P32238); test: Calcium Flux CCKAR Antagonist; format: cell-based; conditions: for Emax: read-out: Max response; for pIC50: read-out: RC50, result type IC50
T1 sequence (P32238 1-428): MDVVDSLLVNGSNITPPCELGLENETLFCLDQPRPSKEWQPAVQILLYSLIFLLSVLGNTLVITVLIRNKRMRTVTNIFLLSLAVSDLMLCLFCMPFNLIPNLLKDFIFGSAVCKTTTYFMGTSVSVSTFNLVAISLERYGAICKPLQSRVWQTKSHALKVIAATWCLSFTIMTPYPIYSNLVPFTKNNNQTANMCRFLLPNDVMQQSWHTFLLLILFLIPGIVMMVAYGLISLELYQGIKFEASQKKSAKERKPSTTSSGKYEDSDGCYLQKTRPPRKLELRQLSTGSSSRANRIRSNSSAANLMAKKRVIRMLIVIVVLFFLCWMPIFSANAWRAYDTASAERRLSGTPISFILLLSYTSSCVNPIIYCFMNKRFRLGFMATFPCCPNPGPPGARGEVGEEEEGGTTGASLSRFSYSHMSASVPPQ
Experimental: as §1, §2

VEGFR2 = target: T2, VEGFR2 (Homo sapiens, UniProt P35968); test: Binding (KINOMEscan) VEGFR2 Inhibitor; conditions: for Emax: read-out: Max response; for pIC50: read-out: RC50, result type IC50
T2 construct: purchased Eurofins DiscoverX Corporation 87-1003DR; host or cells: E. coli BL21-derived host (T7 phage) or HEK-293
T2 sequence (P35968 20-1356): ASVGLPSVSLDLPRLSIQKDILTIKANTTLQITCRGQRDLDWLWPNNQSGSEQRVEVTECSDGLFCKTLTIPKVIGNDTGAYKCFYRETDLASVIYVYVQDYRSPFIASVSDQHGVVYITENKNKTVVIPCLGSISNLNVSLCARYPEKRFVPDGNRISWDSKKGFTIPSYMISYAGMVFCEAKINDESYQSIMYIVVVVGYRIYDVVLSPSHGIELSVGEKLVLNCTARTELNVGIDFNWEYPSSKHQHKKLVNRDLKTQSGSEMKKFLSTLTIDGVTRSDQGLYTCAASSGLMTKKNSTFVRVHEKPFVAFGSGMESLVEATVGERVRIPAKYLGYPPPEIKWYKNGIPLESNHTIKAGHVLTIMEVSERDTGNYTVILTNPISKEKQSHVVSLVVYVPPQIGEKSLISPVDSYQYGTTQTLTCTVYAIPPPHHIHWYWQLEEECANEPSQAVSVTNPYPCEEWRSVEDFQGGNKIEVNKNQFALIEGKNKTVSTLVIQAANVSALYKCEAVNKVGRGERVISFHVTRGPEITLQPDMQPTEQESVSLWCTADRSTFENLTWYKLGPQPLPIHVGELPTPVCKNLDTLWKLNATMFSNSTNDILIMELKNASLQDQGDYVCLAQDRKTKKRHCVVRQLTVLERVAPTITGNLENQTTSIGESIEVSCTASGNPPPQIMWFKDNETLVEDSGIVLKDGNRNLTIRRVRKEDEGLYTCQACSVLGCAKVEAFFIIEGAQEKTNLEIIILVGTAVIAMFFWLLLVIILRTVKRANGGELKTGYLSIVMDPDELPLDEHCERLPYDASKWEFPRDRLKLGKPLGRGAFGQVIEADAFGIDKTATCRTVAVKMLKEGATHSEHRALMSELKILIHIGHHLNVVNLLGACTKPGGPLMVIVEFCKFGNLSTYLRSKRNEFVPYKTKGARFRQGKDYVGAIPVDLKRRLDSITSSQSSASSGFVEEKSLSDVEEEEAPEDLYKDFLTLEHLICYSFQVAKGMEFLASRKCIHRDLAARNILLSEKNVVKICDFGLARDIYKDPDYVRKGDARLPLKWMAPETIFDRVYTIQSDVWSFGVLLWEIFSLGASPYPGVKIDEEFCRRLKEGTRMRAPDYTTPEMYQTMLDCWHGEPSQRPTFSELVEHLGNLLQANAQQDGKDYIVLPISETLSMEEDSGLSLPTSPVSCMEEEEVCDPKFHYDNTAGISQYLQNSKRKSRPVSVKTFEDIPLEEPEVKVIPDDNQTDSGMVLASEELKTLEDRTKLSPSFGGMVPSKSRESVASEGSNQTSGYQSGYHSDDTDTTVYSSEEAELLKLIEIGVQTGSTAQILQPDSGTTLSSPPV
Experimental: For most assays, kinase-tagged T7 phage strains were grown in parallel in 24-well blocks in an E. coli host derived from the BL21 strain. E. coli were grown to log-phase and infected with T7 phage from a frozen stock (multiplicity of infection=0.4) and incubated with shaking at 32° C. until lysis (90-150 min). The lysates were centrifuged (6,000×g) and filtered (0.2 μm) to remove cell debris. The remaining kinases were produced in HEK-293 cells and subsequently tagged with DNA for qPCR detection. Streptavidin-coated magnetic beads were treated with biotinylated small molecule ligands for 30 min at RT to generate affinity resins for kinase assays. The liganded beads were blocked with excess biotin and washed with blocking buffer (SeaBlock (Pierce), 1% BSA, 0.05% Tween 20, 1 mM DTT) to remove unbound ligand and to reduce non-specific phage binding. […] All reactions were performed in polypropylene 384-well plates in a final volume of 0.02 mL. […] The beads were then re-suspended in elution buffer (1×PBS, 0.05% Tween 20, 0.5 μM non-biotinylated affinity ligand) and incubated at RT with shaking for 30 min. The kinase concentration in the eluates was measured by qPCR.
The kinase concentration in the eluates was measured by qPCR. qPCR reactions were assembled by adding 2.5 μL of kinase eluate to 7.5 μL of qPCR master mix containing 0.15 μM amplicon primers and 0.15 μM amplicon probe. The qPCR protocol consisted of a 10 min hot start at 95° C., followed by 35 cycles of 95° C. for 15 sec, 60° C. for 1 min.
Binding constants (Kds) were calculated with a standard dose-response curve using the Hill equation: […]

AChE = target: T3, AChE (Homo sapiens, UniProt P22303); test: Enzymatic AChE Inhibitor; format: biochemical; conditions: for Emax: read-out: Max response; for pIC50: read-out: RC50, result type IC50
T3 construct: purchased R&D Systems
T3 sequence (P22303 32-614): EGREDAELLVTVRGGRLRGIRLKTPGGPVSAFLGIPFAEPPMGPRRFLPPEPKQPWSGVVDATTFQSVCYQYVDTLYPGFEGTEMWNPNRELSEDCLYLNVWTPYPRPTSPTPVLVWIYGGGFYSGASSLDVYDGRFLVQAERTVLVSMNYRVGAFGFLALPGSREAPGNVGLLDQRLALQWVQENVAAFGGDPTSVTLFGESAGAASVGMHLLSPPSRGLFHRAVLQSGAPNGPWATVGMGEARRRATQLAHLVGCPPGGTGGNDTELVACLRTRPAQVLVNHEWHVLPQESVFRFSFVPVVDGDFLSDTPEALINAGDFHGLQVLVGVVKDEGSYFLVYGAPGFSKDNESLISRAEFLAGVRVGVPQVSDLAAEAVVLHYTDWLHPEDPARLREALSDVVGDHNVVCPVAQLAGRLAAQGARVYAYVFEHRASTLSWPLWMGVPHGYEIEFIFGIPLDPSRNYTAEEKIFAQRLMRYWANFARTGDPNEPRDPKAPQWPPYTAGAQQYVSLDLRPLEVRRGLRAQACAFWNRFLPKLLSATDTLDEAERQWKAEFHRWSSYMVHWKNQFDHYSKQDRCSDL
Experimental: Enzyme preparations were sourced from various vendors-AChE (R&D Systems), COX1 and COX2 (BPS Bioscience), MAOA (Sigma), PDE3A and PDE4D2 (Signal Chem). AChE: enzyme and test compound were pre-incubated for 15 min at RT before substrate addition. Acetylthiocholine and DTNB were added and incubated at RT for 30 min. Signal was detected by measuring absorbance at 405 nm. COX1 and COX2: enzyme stocks were diluted in assay buffer (40 mM Tris-HCl, 1×PBS, 0.5 mM Phenol, 0.01% Tween 20 and 10 nM Hematin) and allowed to equilibrate with compounds at RT for 30 min (binding incubation). Arachidonic acid (1.7 μM) and Ampliflu Red (2.5 μM) were prepared and dispended into a reaction plate. Plates were read immediately on a fluorimeter with the emission detection at 590 nm and excitation wavelength 544 nm. MAOA: enzyme and test compound were pre-incubated for 15 min at 37° C. before substrate addition. The reaction was initiated by addition of kynuramine and incubated at 37° C. for 30 min. The reaction was terminated by addition of NaOH. The amount of 4-hydroquinoline formed was determined through spectrofluorometric readout with the emission detection at 380 nm and excitation wavelength 310 nm. PDE3A and PDE4D2: enzyme and test compound were pre-incubated for 15 min at RT before substrate addition. cAMP substrate (at a concentration equal to EC80) was added and incubated at RT for 30 min. Enzyme reaction was terminated by addition of 9 mM IBMX. Signal was detected using the HitHunter® cAMP detection kit. Microplates were transferred to a PerkinElmer Envision™ instrument and read out as described for each assay. […] For enzyme activity assays, percentage inhibition was calculated using the following equation: […]

OPRD1 = OPRD1 (Homo sapiens, UniProt P41143); test: cAMP OPRD1 Agonist; conditions: for Emax: read-out: Max response
Chain of OPRD1 (P41143 whole entry): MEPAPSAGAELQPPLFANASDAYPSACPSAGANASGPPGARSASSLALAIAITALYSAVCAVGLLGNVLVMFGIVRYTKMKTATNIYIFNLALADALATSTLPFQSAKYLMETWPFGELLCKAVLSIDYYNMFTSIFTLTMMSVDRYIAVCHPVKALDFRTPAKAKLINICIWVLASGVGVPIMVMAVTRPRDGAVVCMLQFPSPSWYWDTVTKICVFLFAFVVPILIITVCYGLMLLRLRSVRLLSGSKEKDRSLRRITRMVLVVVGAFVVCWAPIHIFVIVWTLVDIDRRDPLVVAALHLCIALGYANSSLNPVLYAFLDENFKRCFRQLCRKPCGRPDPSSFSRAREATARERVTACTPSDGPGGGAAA
Experimental: (§3) In vitro pharmacological profiling of compounds was done against 78 functional assays for 47 common off-targets (30) by Eurofins DiscoverX Corporation (Fremont, CA, USA) using their SAFETYscan E/IC50 ELECT service (Cat Ref 87-1003DR, Safety47 Panel Dose Response). […] Compounds were tested in a range of 10 concentrations, following a 3-fold serial dilution, starting from 10 μM.
(§4) cAMP Hunter cell lines were expanded from freezer stocks. Prior to testing, cells were seeded in a total volume of 20 μL into white walled 384-well microplates and incubated at 37° C. cAMP modulation was determined using the DiscoverX HitHunter cAMP XS+ assay. For Gs agonist determination, cells were incubated with sample to induce response. For Gi agonist determination, cells were incubated with sample in the presence of EC80 forskolin to induce response. For both conditions, media was aspirated from cells and replaced with 15 μL 2:1 HBSS/10 mM HEPES:cAMP XS+ Ab reagent. Intermediate dilution of sample stocks was performed to generate 4× sample in assay buffer (containing 4×EC80 forskolin in the case of antagonist determination). 5 μL of 4× sample was added to cells and incubated at 37° C. or room temperature (RT) for 30 or 60 min. Final assay vehicle concentration was 1%. For antagonist determination, cells were pre-incubated with sample followed by agonist challenge at the EC80 concentration. Media was aspirated from cells and replaced with 10 μL 1:1 HBSS/HEPES:cAMP XS+ Ab reagent. 5 μL of 4× compound was added to the cells and incubated at 37° C. or RT for 30 min. 5 μL of 4×EC80 agonist was added to the cells and incubated at 37° C. or RT for 30 or 60 min. For Gi coupled GPCRs, EC80 forskolin was included. […] Microplates were read following signal generation with a PerkinElmer Envision™ instrument for chemiluminescent signal detection. Compound activity was analyzed using CBIS data analysis suite (ChemInnovation, CA).

DRD1 = DRD1 (Homo sapiens, UniProt P21728); test: cAMP DRD1 Antagonist; conditions: for Emax: read-out: Max response
Chain of DRD1 (P21728 whole entry): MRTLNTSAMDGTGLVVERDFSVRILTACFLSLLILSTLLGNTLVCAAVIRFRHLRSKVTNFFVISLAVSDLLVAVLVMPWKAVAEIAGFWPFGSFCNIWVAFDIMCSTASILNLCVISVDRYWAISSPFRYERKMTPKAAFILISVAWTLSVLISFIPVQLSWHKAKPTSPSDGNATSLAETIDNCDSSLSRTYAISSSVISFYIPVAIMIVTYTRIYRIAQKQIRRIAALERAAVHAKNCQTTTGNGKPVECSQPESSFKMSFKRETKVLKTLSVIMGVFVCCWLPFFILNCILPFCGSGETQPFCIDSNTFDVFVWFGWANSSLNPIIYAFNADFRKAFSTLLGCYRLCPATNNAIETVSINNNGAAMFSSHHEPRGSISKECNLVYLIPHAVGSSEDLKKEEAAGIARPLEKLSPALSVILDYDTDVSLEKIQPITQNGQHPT
Experimental: as §3, §4

CHRM3 = CHRM3 (Homo sapiens, UniProt P20309); test: Calcium Flux CHRM3 Agonist; conditions: for Emax: read-out: Max response
Chain of CHRM3 (P20309 whole entry): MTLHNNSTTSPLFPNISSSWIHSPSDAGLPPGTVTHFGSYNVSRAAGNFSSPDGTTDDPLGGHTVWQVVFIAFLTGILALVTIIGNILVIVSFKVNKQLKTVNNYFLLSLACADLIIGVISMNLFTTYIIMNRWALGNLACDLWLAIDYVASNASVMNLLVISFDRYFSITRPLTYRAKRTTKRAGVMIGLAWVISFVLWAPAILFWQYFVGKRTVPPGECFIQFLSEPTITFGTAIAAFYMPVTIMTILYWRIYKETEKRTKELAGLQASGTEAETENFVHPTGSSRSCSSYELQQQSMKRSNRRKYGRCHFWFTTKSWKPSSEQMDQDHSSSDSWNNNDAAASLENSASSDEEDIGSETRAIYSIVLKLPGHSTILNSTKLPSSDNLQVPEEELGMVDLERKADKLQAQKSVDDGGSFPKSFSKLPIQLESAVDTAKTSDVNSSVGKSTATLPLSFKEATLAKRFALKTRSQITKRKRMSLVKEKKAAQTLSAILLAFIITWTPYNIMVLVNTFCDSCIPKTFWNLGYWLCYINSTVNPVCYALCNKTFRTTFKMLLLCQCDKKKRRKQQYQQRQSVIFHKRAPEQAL
Experimental: In vitro pharmacological profiling of compounds was done against 78 functional assays for 47 common off-targets (30) by Eurofins DiscoverX Corporation (Fremont, CA, USA) using their SAFETYscan E/IC50 ELECT service (Cat Ref 87-1003DR, Safety47 Panel Dose Response). […] Compounds were tested in a range of 10 concentrations, following a 3-fold serial dilution, starting from 10 μM. The assays were performed utilizing the PathHunter enzyme fragment complementation (EFC) technology, FLIPR®-based cellular screening assays, and KINOMEscan kinase binding assays.
Prior to testing, cells (10,000 cells/well) were expanded from freezer stocks and seeded into a total volume of 50 μL into black walled, clear-bottom, Poly-D-lysine coated 384-well microplates and incubated at 37° C. […] Assays were performed in 1× dye loading buffer consisting of 1× Dye (DiscoverX, Calcium No Wash^PLUS kit, Catalog No. 90-0091), 1× Additive A and 2.5 mM Probenecid in HBSS/20 mM HEPES. Probenecid was prepared fresh. Prior to testing, media was aspirated from cells and replaced with 25 μL dye loading buffer. Cells were incubated for 45 min at 37° C. and then 20 min at RT. For agonist determination, 25 μL of 2× compound in HBSS/20 mM HEPES was added using a FLIPR Tetra (MDS). For antagonist determination, cells were pre-incubated with sample followed by agonist challenge at the EC80 concentration. 25 μL of 2× sample was added and cells were incubated for 30 min at RT in the dark to equilibrate plate temperature. After incubation, antagonist determination was initiated by addition of 25 μL of 1× compound with 3×EC80 agonist using FLIPR. For both agonist and antagonist formats, activity was measure on a FLIPR Tetra (MDS). Calcium mobilization was monitored for 2 min with a 5 sec baseline read.
FLIPR read—Area under the curve, was calculated for the entire 2 min read. Compound activity was analysed using CBIS data analysis suite (ChemInnovation, CA).

Chain of AVPR1A (P37288 whole entry): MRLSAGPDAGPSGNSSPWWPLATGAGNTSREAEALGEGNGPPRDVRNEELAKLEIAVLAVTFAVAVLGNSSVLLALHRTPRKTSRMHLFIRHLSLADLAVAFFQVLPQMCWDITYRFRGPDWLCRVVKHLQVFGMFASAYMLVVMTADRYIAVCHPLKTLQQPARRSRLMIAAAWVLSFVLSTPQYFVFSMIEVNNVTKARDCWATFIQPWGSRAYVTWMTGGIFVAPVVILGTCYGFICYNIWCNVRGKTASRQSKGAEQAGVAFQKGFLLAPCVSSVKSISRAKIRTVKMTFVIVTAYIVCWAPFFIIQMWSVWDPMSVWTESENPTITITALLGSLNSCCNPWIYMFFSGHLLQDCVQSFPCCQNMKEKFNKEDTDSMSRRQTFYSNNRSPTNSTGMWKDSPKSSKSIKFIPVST

Structure (SMILES)	Emax (AVPR1A; Calcium Flux AVPR1A Antagonist) [%]	pIC50 (AVPR1A; Calcium Flux AVPR1A Antagonist)	Emax (CCKAR; Calcium Flux CCKAR Antagonist) [%]	pIC50 (CCKAR; Calcium Flux CCKAR Antagonist)	Emax (VEGFR2; Binding VEGFR2 Inhibitor) [%]	pIC50 (VEGFR2; Binding VEGFR2 Inhibitor)	Emax (AChE; Enzymatic AChE Inhibitor) [%]	pIC50 (AChE; Enzymatic AChE Inhibitor)	pEC50 (OPRD1)	Emax (OPRD1) [%]	pIC50 (DRD1)	Emax (DRD1) [%]	pEC50 (CHRM3)	Emax (CHRM3) [%]	Emax (AVPR1A) [%]	Emax (CCKAR) [%]	Emax (VEGFR2) [%]	Emax (AChE) [%]
Clc1cccc(C#Cc2n[nH]c3ncccc23)c1 [Compound 10.1, 3-((3-chlorophenyl)ethynyl)-1H-pyrazolo[3,4-b]pyridine]	0	< 5.00	0	< 5.00	5.4	< 5.00	1.3	< 5.00	< 5.00	12.1	< 5.00	17.2	< 5.00	2.2	–	–	–	–
CC(C)(C)c1ccc(C#CC(O)c2ccccc2)cc1 (racemic) [Compound 3.3, rac-3-(4-(tert-butyl)phenyl)-1-phenylprop-2-yn-1-ol]	–	< 5.00	–	< 5.00	–	< 5.00	–	< 5.00	< 5.00	3.6	< 5.00	2.7	< 5.00	0	0	0	0	3.8
